Measured values from patent US7517911B2, “3,4,5-trimethoxy phenyl-based ester compound and preparation method thereof and whitening cosmetic composition containing the same” (Amorepacific Corporation, priority 2001, dated 2009).

What was measured:
rabbit skin = test: Test for skin irritation on animals (Draize P.I.I.); assay type: in vivo, rabbits; settings: 1% diluted solution, 0.5 ml
Procedure: The hairs on the backs of six (6) healthy male rabbits were removed. After making areas of 2.5 cm×2.5 cm on the left and right sides of the back of each rabbit, nothing was applied on the left area of the back as control area, and 1% diluted solutions of the ester compounds of Examples 1˜6 (solvent was 1,3-butyleneglycol:ethanol=7:3) were applied on the right area of the back of the rabbits with an amount of 0.5 ml, one compound for each rabbit respectively. Irritations such as erythema, rash or edema were measured 24 hours and 72 hours after the application. In addition, the degree of irritation was determined according to the conventional, “P.I.I.” (Primary Irritation Index) of Draize, and the results are shown in Table 6.

human skin [1] = test: Test for application to human skin (patch test, CTFA Guideline); assay type: in vivo; settings: for The number of volunteers having reaction, mark +: + = Intense erythema; for The number of volunteers having reaction, mark + / The number of volunteers having reaction, mark ++ / The number of volunteers having reaction, mark +++ / The number of volunteers having reaction, mark ± / The number of volunteers having reaction, mark −: 1% in patch base, n = 30; for The number of volunteers having reaction, mark ++: ++ = Intense erythema with edema; for The number of volunteers having reaction, mark +++: +++ = Intense erythema with edema &vesicle; for The number of volunteers having reaction, mark ±: ± = Mild erythema; for The number of volunteers having reaction, mark −: − = No visible reactions
Procedure: Each of the ester compounds of Examples 1˜6 were dissolved in a patch base shown in Table 8 to be 1% concentration respectively, to prepare test samples. 20 μl of each test sample was dropped in a Finn Chamber to make a patch, and the patch was attached to antebrachial skin (test region) and fixed with micro tape. The patch was attached for 24 hours, and after removing the patch, the test region was checked with marking pen, and then the region was observed after 1 and 24 hours.

Mel-Ab cells = test: Melanin-inhibiting effect in the melanocytes (Dooley method); assay type: cell-based, C57BL/6; settings: 10 ppm in culture medium, absorbance at 400 nm, compared with cells cultured without compound
guinea pig skin = test: Test for radiation toxicity (UVA); assay type: in vivo
Procedure: The hairs on the backs of ten (10) guinea pigs were removed. After fixing the pigs, the back was divided into six (6) areas each having 2.0 cm×2.0 cm area, three (3) areas on the left side and three (3) on the right side. Right side areas were control areas prevented from being radiated, and left side areas were radiation areas. 1% (w/v) diluted solutions of ester compounds of Examples 1˜6 were applied thereto with an equal amount of 50 μl respectively, while using vehicle (1,3-butyleneglycol:ethanol=7:3) as a negative control, and using 0.1% 8-MOP(methoxypsoralene) as a positive control. After 30 minutes later, left sides of the back of the pig was shielded from light by aluminum foil, and UVA(320˜380 nm) was radiated from 10 cm distant with an final energy of 15J/cm^2 by using ultraviolet radiation device (waldmann). The skin of the guinea pig was observed after 24, 48 and 72 hours later. The irritation was graded as shown in table 5 with 0˜4 grades according to the intensity of the erythema and edema, and the sum was calculated. In the evaluation, the maximum value of the measurement that performed after 24, 48 and 72 hours later was chosen, and then the Irritation Index of an animal skin was calculated according to mathematical formula 1, and finally, the Radiation Toxicity Index was calculated according to mathematical Formula 2. Irritation Index of an animal skin=(Σ maximum value of erythema index+Σ maximum value of edema index)/number of animals [Mathematical Formula 1] Radiation Toxicity Index=(Irritation Index of an animal skin in an area of UV radiation)−(Irritation Index of an animal skin in an area UV non-radiation) [Mathematical Formula 2]

human skin [2] = test: Whitening effect on the human skin (UVB-induced pigmentation, Chromameter); assay type: in vivo; settings: 1% diluted solution (1,3-butyleneglycol:ethanol=7:3), applied for 10 weeks after UVB, 12 male volunteers
Excerpt: The brachia of twelve (12) healthy volunteers (males) were attached with opaque tape having 1.5 cm diameter holes, and then irradiated with UVB (ultraviolet rays B) in 1.5˜2 times the intensity of the minimum amount to form erythema for each volunteer, to induce pigmentation. After irradiating the UVB, 1% diluted solutions of the ester compounds of Examples 1˜6 (solvent was 1,3-butyleneglycol:ethanol=7:3) were applied on the above treated brachia for ten (10) weeks (the above 1% diluted solution was not applied on one brachium), and the colors of the skins thereof were measured by Chromameter CR2002 (manufactured by Minolta; Japan) per every one week. The difference of “L”, that is, “Δ L”, the amount of the increase of brightness of skin compared with those not applied with diluted solution, was measured. For reference, measurements for the cases that 3% kojic acid and vehicle (solvent) were applied were performed.

How did the “Determination (skin irritation)” value (rabbit skin) turn out when `COc1cc(CCC(=O)Oc2cc(C(C)C)ccc2C)cc(OC)c1OC` [Example 6, 2-methyl-5-(methylethyl)phenyl-3-(3,4,5-trimethoxyphenyl)propanoate] was run?
Its value is “No irritation”.

And the P.I.I. (rabbit skin; measured 24 and 72 hours after application)?
The P.I.I. was 0.315.

And the “The number of volunteers having reaction, mark +” value (human skin [1]; 24 hours later)?
Its value is 0.

And the “The number of volunteers having reaction, mark ++” value (human skin [1]; 24 hours later)?
The value was 0.

What about the “The number of volunteers having reaction, mark +++” value (human skin [1]; 24 hours later) of the same compound?
The value was 0.

And the “The number of volunteers having reaction, mark ±” value (human skin [1]; 24 hours later)?
Its value is 0.

And the “The number of volunteers having reaction, mark −” value (human skin [1]; 24 hours later)?
Its value is 30.

What about the “The number of volunteers having reaction, mark +” value (human skin [1]; 48 hours later) of the same compound?
The value was 0.

And the “The number of volunteers having reaction, mark ++” value (human skin [1]; 48 hours later)?
Its value is 0.

And the “The number of volunteers having reaction, mark +++” value (human skin [1]; 48 hours later)?
Its value is 0.

And the “The number of volunteers having reaction, mark ±” value (human skin [1]; 48 hours later)?
The value was 0.

And the “The number of volunteers having reaction, mark −” value (human skin [1]; 48 hours later)?
The value was 30.

What about the “Average reaction (n = 30)” value (human skin [1]; {(grade × number of volunteers) × 100}/{maximum grade × total volunteers × number of test}, non-irritation standard value 1.0) of the same compound?
Its value is 0.00.

And the “Melanin generation ratio (%)” value (Mel-Ab cells)?
Its value is 48.1%.

What about the “Radiation Toxicity Index” value (guinea pig skin; 1% (w/v) solution 50 μl, UVA 15J/cm^2, observed 24, 48 and 72 hours) of the same compound?
The value was 0.

And the “Determination (radiation toxicity)” value (guinea pig skin; 1% (w/v) solution, UVA 15J/cm^2)?
Its value is “Radiation Non-Toxic”.

What about the “Increase of brightness of skin (Δ L)” value (human skin [2]) of the same compound?
The value was 1.49 ± 0.11.
